In patent US20230285389A1, “USE OF CSF-1R KINASE INHIBITOR” (Shanghai Runshi Medical Technology Co., Ltd, priority 2020, published 2023):

Experiments:
[1] = test system: CD8+ T cells co-cultured with CSF-1-induced BMDMs; conditions: BMDMs pre-incubated with compound; co-culture 72 h
[2] = test system: IL4/IL13-polarized murine BMDMs; test: M2-biased polarization phenotype of BMDMs, flow cytometry of surface markers; assay type: cell-based, BALB/c mice; conditions: mouse-derived BMDM, 48 h
Protocol: BALB/c mice (female, 6 weeks old, healthy) were sacrificed. Bone marrow cells were taken from their femurs and tibia, and seeded into a 6-well culture plate at appropriate densities ([…], per well) after erythrobiasis treatment. 100 ng/mL of CSF-1 factor was added to each well to induce macrophages (Bone marrow-derived macrophages, BMDM). After 7 days of induction, the cell culture medium was changed. CSF-1 factor was added at the same concentration as above, and M2 polarization of macrophages was induced with 10 ng/mL of IL4 and 10 ng/mL of IL13. While inducing polarization, compounds at various concentrations were added into test wells and negative control wells. After 48 h, the cells were harvested for flow cytometric analysis.
Cells in good condition were collected, and first washed twice with PBS. After washing, each sample was re-suspended with 100 µL of PBS and 0.5 µL of the fluorescent antibody prepared according to the manufacturer’s instructions to distinguish dead and live cells was added. The samples were stained in the dark at 4° C. for 30 min. After 30 min, the samples were washed twice with 1mL of the running buffer and the tubes were centrifuged at 300 g for 5 min at 4° C. The blocking antibody diluent was prepared by adding 2 µL of blocking antibody TruStain fcX™ (anti-mouse CD16/32) per 100 µL running buffer and was added on the basis of the 100 µL system of each sample. After blocking for 10 min, according to the manufacturer’s instructions, the fluorescent antibody corresponding to the surface protein was added to the samples, and the reactant was allowed for incubation at 4° C. for 30 min. At this step, a single staining control and an FMO control were set. Then, the samples were washed twice with 1 mL of the running buffer, and centrifuged at 300 g for 5 min at 4° C. each time.
If only surface proteins were to be examined, after centrifugation, the samples were re-suspended with 300 µL of PBS and immediately input into machines, or the samples were fixed with 4% paraformaldehyde for 15 min, and centrifuged at 500 g for 7 min. […]

For `CNC(=O)c1cccc2cc(Oc3ccnc(NC(=O)c4ccc(N5C[C@@H](C)N[C@@H](C)C5)cc4)c3)ccc12` [Compound I], the “CD8+ T cell proliferation compared to solvent control” value [1] was “substantially increased”, the “expression level of surface marker CD206 (M2-type marker)” value ([2]; 25, 50 and 100 nM) was “significantly inhibit” and the “expression level of surface marker CD86 (M1-type marker)” value [2] was “significantly enhance”. For the same compound, the “expression level of surface marker MHC-II (M1-type marker)” value [2] was “significantly enhance”.
